PubChem BioAssay AID1963852 (Molecular Pharmacology Branch, DTP, NCI, 2024)

System: 282377-053-R-J1-PDC complex spheroid viability
Experiment: Anticancer human tumor 282377-053-R-J1-PDC patient-derived colon adenocarcinoma cell line growth inhibition [POLQ]
Conditions: for IC50: curve of first compound; for viability, T/C: stronger effect = lower value
Method in brief: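 Patient-derived tumour cells were co-cultured with HUVEC and mesenchymal stem cells as multicellular spheroids at 37 °C. They were treated with POLQ inhibitors (novobiocin, ART-558, RP6685) alone or combined with other agents. Top concentrations were at or near clinical Cmax (otherwise 10 microM; SN-38 at 1 microM), decreasing in half-log steps.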

[1] = second compound 0.0316 µM, first compound 0.0316 µM
[2] = second compound 0.0316 µM, first compound 0.1 µM
[3] = second compound 0.0316 µM, first compound 0.316 µM
[4] = second compound 0.0316 µM, first compound 1 µM
[5] = second compound 0.1 µM, first compound 0.0316 µM
[6] = second compound 0.1 µM, first compound 0.1 µM
[7] = second compound 0.1 µM, first compound 0.316 µM
[8] = second compound 0.1 µM, first compound 1 µM
[9] = second compound 0.316 µM, first compound 0.0316 µM
[10] = second compound 0.316 µM, first compound 0.1 µM
[11] = second compound 0.316 µM, first compound 0.316 µM
[12] = second compound 0.316 µM, first compound 1 µM
[13] = second compound 1 µM, first compound 0.0316 µM
[14] = second compound 1 µM, first compound 0.1 µM
[15] = second compound 1 µM, first compound 0.316 µM
[16] = second compound 1 µM, first compound 1 µM
[17] = second compound 3.16 µM, first compound 0.0316 µM
[18] = second compound 3.16 µM, first compound 0.1 µM
[19] = second compound 3.16 µM, first compound 0.316 µM
[20] = second compound 3.16 µM, first compound 1 µM
[21] = second compound 10 µM, first compound 0.0316 µM
[22] = second compound 10 µM, first compound 0.1 µM
[23] = second compound 10 µM, first compound 0.316 µM
[24] = second compound 10 µM, first compound 1 µM
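Further: spheroids exposed to compounds for seven days.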
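Wherever viability, T/C is given: 100% = DMSO vehicle control viability.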

Q: Which IC50 (second compound 0.0316 µM) does the source give for O=C(Nc1ccc(O)c(NS(=O)(=O)c2ccc(F)cc2)c1)c1ccc(-c2ccccc2)cc1 + Cc1cccc(N(C)C(=O)C2C(O)CCN2c2nc(C)cc(C(F)(F)F)c2C#N)c1 here?
A: > 10000 nM

Q: And the IC50 (second compound 0.1 µM)?
A: > 10000 nM

Q: What about the IC50 (second compound 0.316 µM) of the same molecule?
A: > 10000 nM

Q: What about the IC50 (second compound 1 µM) of the same molecule?
A: > 10000 nM

Q: What about the IC50 (second compound 3.16 µM) of the same molecule?
A: > 10000 nM

Q: What about the IC50 (second compound 10 µM) of the same molecule?
A: > 10000 nM

Q: What about the viability, T/C [1] of the same molecule?
A: 122%

Q: What about the viability, T/C [2] of the same molecule?
A: 119%

Q: And the viability, T/C [3]?
A: 98.4%

Q: What about the viability, T/C [4] of the same molecule?
A: 102%

Q: And the viability, T/C (second compound 0.0316 µM, first compound 3.16 µM)?
A: 107%

Q: And the viability, T/C (second compound 0.0316 µM, first compound 10 µM)?
A: 116%

Q: What about the viability, T/C [5] of the same molecule?
A: 106%

Q: What about the viability, T/C [6] of the same molecule?
A: 117%

Q: What about the viability, T/C [7] of the same molecule?
A: 99.5%

Q: What about the viability, T/C [8] of the same molecule?
A: 108%

Q: And the viability, T/C (second compound 0.1 µM, first compound 3.16 µM)?
A: 124%

Q: What about the viability, T/C (second compound 0.1 µM, first compound 10 µM) of the same molecule?
A: 118%

Q: And the viability, T/C [9]?
A: 104%

Q: And the viability, T/C [10]?
A: 107%

Q: And the viability, T/C [11]?
A: 106%

Q: And the viability, T/C [12]?
A: 103%

Q: What about the viability, T/C (second compound 0.316 µM, first compound 3.16 µM) of the same molecule?
A: 116%

Q: What about the viability, T/C (second compound 0.316 µM, first compound 10 µM) of the same molecule?
A: 120%

Q: What about the viability, T/C [13] of the same molecule?
A: 106%

Q: And the viability, T/C [14]?
A: 110%

Q: What about the viability, T/C [15] of the same molecule?
A: 99.8%

Q: What about the viability, T/C [16] of the same molecule?
A: 109%

Q: What about the viability, T/C (second compound 1 µM, first compound 3.16 µM) of the same molecule?
A: 117%

Q: And the viability, T/C (second compound 1 µM, first compound 10 µM)?
A: 119%

Q: And the viability, T/C [17]?
A: 112%

Q: What about the viability, T/C [18] of the same molecule?
A: 118%

Q: And the viability, T/C [19]?
A: 104%

Q: And the viability, T/C [20]?
A: 108%

Q: And the viability, T/C (second compound 3.16 µM, first compound 3.16 µM)?
A: 126%

Q: What about the viability, T/C (second compound 3.16 µM, first compound 10 µM) of the same molecule?
A: 115%

Q: What about the viability, T/C [21] of the same molecule?
A: 106%

Q: What about the viability, T/C [22] of the same molecule?
A: 105%

Q: What about the viability, T/C [23] of the same molecule?
A: 99.7%

Q: What about the viability, T/C [24] of the same molecule?
A: 97%

Q: And the viability, T/C (second compound 10 µM, first compound 3.16 µM)?
A: 106%

Q: What about the viability, T/C (second compound 10 µM, first compound 10 µM) of the same molecule?
A: 115%

Q: How did the IC50 (second compound 0.0316 µM) turn out when COc1cccc(OCCCN)c1-c1cc(Nc2cnc(C#N)cn2)n[nH]1 + Nc1ccc(C#CCN(C(=O)Cc2ncc(C(F)(F)F)cc2C(F)(F)F)c2ccc(F)cc2)nn1 was run?
A: 370 nM

Q: And the IC50 (second compound 0.1 µM)?
A: 285 nM

Q: What about the IC50 (second compound 0.316 µM) of the same molecule?
A: 298 nM

Q: And the IC50 (second compound 1 µM)?
A: 577 nM

Q: And the IC50 (second compound 3.16 µM)?
A: 242 nM

Q: And the IC50 (second compound 10 µM)?
A: 212 nM

Q: And the viability, T/C (second compound 0.0316 µM, first compound 0.00316 µM)?
A: 128%

Q: And the viability, T/C (second compound 0.0316 µM, first compound 0.01 µM)?
A: 93.5%

Q: What about the viability, T/C [1] of the same molecule?
A: 85%

Q: And the viability, T/C [2]?
A: 66.8%

Q: And the viability, T/C [3]?
A: 55.3%

Q: And the viability, T/C [4]?
A: 37%

Q: What about the viability, T/C (second compound 0.1 µM, first compound 0.00316 µM) of the same molecule?
A: 89.7%

Q: What about the viability, T/C (second compound 0.1 µM, first compound 0.01 µM) of the same molecule?
A: 97.3%

Q: And the viability, T/C [5]?
A: 72.9%

Q: And the viability, T/C [6]?
A: 62.4%

Q: And the viability, T/C [7]?
A: 51.8%

Q: And the viability, T/C [8]?
A: 39%

Q: What about the viability, T/C (second compound 0.316 µM, first compound 0.00316 µM) of the same molecule?
A: 94.9%

Q: And the viability, T/C (second compound 0.316 µM, first compound 0.01 µM)?
A: 88.3%

Q: And the viability, T/C [9]?
A: 73.4%

Q: What about the viability, T/C [10] of the same molecule?
A: 58.1%

Q: What about the viability, T/C [11] of the same molecule?
A: 53.2%

Q: And the viability, T/C [12]?
A: 38%

Q: What about the viability, T/C (second compound 1 µM, first compound 0.00316 µM) of the same molecule?
A: 110%

Q: What about the viability, T/C (second compound 1 µM, first compound 0.01 µM) of the same molecule?
A: 90.3%

Q: And the viability, T/C [13]?
A: 76.4%

Q: And the viability, T/C [14]?
A: 58.4%

Q: And the viability, T/C [15]?
A: 53.7%

Q: What about the viability, T/C [16] of the same molecule?
A: 47.5%

Q: What about the viability, T/C (second compound 3.16 µM, first compound 0.00316 µM) of the same molecule?
A: 97.6%

Q: And the viability, T/C (second compound 3.16 µM, first compound 0.01 µM)?
A: 93.5%

Q: What about the viability, T/C [17] of the same molecule?
A: 81.3%

Q: And the viability, T/C [18]?
A: 74.9%

Q: And the viability, T/C [19]?
A: 39.7%

Q: What about the viability, T/C [20] of the same molecule?
A: 35.6%

Q: What about the viability, T/C (second compound 10 µM, first compound 0.00316 µM) of the same molecule?
A: 103%

Q: And the viability, T/C (second compound 10 µM, first compound 0.01 µM)?
A: 96.7%

Q: What about the viability, T/C [21] of the same molecule?
A: 99.9%

Q: And the viability, T/C [22]?
A: 66.7%

Q: And the viability, T/C [23]?
A: 43.3%

Q: What about the viability, T/C [24] of the same molecule?
A: 36.3%

Q: CC(=O)O[C@H]1C(=O)[C@@]2(C)[C@H]([C@H](OC(=O)c3ccccc3)[C@]3(O)C[C@H](OC(=O)[C@H](O)[C@@H](NC(=O)c4ccccc4)c4ccccc4)C(C)=C1C3(C)C)[C@]1(OC(C)=O)CO[C@@H]1C[C@@H]2O + Nc1ccc(C#CCN(C(=O)Cc2ncc(C(F)(F)F)cc2C(F)(F)F)c2ccc(F)cc2)nn1 was tested. Which IC50 (second compound 0.0316 µM) did it give?
A: > 3000 nM

Q: And the IC50 (second compound 0.1 µM)?
A: > 3000 nM

Q: What about the IC50 (second compound 0.316 µM) of the same molecule?
A: 3000 nM

Q: And the IC50 (second compound 1 µM)?
A: > 3000 nM

Q: And the IC50 (second compound 3.16 µM)?
A: 91.8 nM

Q: And the IC50 (second compound 10 µM)?
A: > 3000 nM

Q: What about the viability, T/C (second compound 0.0316 µM, first compound 0.00949 µM) of the same molecule?
A: 102%

Q: What about the viability, T/C (second compound 0.0316 µM, first compound 0.03 µM) of the same molecule?
A: 50.7%

Q: And the viability, T/C (second compound 0.0316 µM, first compound 0.0949 µM)?
A: 47.4%

Q: And the viability, T/C (second compound 0.0316 µM, first compound 0.3 µM)?
A: 46.9%

Q: And the viability, T/C (second compound 0.0316 µM, first compound 0.949 µM)?
A: 51.2%

Q: And the viability, T/C (second compound 0.0316 µM, first compound 3 µM)?
A: 65.8%

Q: What about the viability, T/C (second compound 0.1 µM, first compound 0.00949 µM) of the same molecule?
A: 102%

Q: And the viability, T/C (second compound 0.1 µM, first compound 0.03 µM)?
A: 65.9%

Q: And the viability, T/C (second compound 0.1 µM, first compound 0.0949 µM)?
A: 50.4%

Q: What about the viability, T/C (second compound 0.1 µM, first compound 0.3 µM) of the same molecule?
A: 46.5%

Q: What about the viability, T/C (second compound 0.1 µM, first compound 0.949 µM) of the same molecule?
A: 53.8%

Q: And the viability, T/C (second compound 0.1 µM, first compound 3 µM)?
A: 64.9%

Q: And the viability, T/C (second compound 0.316 µM, first compound 0.00949 µM)?
A: 100%

Q: And the viability, T/C (second compound 0.316 µM, first compound 0.03 µM)?
A: 47.7%

Q: And the viability, T/C (second compound 0.316 µM, first compound 0.0949 µM)?
A: 49.7%

Q: What about the viability, T/C (second compound 0.316 µM, first compound 0.3 µM) of the same molecule?
A: 50.1%

Q: What about the viability, T/C (second compound 0.316 µM, first compound 0.949 µM) of the same molecule?
A: 47.2%

Q: And the viability, T/C (second compound 0.316 µM, first compound 3 µM)?
A: 65.2%

Q: And the viability, T/C (second compound 1 µM, first compound 0.00949 µM)?
A: 99.1%

Q: And the viability, T/C (second compound 1 µM, first compound 0.03 µM)?
A: 57.4%

Q: What about the viability, T/C (second compound 1 µM, first compound 0.0949 µM) of the same molecule?
A: 44.2%

Q: And the viability, T/C (second compound 1 µM, first compound 0.3 µM)?
A: 53.3%

Q: What about the viability, T/C (second compound 1 µM, first compound 0.949 µM) of the same molecule?
A: 57.3%

Q: What about the viability, T/C (second compound 1 µM, first compound 3 µM) of the same molecule?
A: 57.7%

Q: What about the viability, T/C (second compound 3.16 µM, first compound 0.00949 µM) of the same molecule?
A: 87.8%

Q: What about the viability, T/C (second compound 3.16 µM, first compound 0.03 µM) of the same molecule?
A: 52.8%

Q: What about the viability, T/C (second compound 3.16 µM, first compound 0.0949 µM) of the same molecule?
A: 42.3%

Q: What about the viability, T/C (second compound 3.16 µM, first compound 0.3 µM) of the same molecule?
A: 49.7%

Q: And the viability, T/C (second compound 3.16 µM, first compound 0.949 µM)?
A: 45.8%

Q: And the viability, T/C (second compound 3.16 µM, first compound 3 µM)?
A: 60.8%

Q: And the viability, T/C (second compound 10 µM, first compound 0.00949 µM)?
A: 106%

Q: What about the viability, T/C (second compound 10 µM, first compound 0.03 µM) of the same molecule?
A: 58.8%

Q: And the viability, T/C (second compound 10 µM, first compound 0.0949 µM)?
A: 49.7%

Q: And the viability, T/C (second compound 10 µM, first compound 0.3 µM)?
A: 50.9%

Q: What about the viability, T/C (second compound 10 µM, first compound 0.949 µM) of the same molecule?
A: 60.9%

Q: And the viability, T/C (second compound 10 µM, first compound 3 µM)?
A: 77.6%
